Test results as given in PMC8958504 (Journal of Medicinal Chemistry, 2022).
Where two headings read alike, the source gives them in different places.

Assays:
[1] = target: T1, hMAO-A (Homo sapiens, UniProt P21397); experiment: biochemical; settings: for IC50: read-out: hMAO-A (IC50), recombinant hMAO-A, p-tyramine substrate
T1 sequence (P21397 1-527): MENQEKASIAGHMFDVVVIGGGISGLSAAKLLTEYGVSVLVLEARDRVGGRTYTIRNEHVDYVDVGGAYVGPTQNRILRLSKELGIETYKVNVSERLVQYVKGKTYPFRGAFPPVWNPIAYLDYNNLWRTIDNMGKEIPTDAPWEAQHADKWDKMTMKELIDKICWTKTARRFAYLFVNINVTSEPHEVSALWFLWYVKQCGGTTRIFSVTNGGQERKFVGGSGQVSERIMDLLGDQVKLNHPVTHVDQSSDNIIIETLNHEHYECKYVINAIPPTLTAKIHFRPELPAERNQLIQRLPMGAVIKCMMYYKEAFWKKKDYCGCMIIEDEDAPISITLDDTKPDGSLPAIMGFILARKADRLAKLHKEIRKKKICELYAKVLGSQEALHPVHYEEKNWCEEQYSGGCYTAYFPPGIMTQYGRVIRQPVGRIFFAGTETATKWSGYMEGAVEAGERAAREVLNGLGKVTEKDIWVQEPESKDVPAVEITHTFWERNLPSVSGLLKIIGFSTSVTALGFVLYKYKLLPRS
Experimental: (§1) The hMAO-A/B inhibition of all compounds was determined using the Amplex Red MAO assay kit.
(§2) Assays were performed following the general procedure previously described.[98] […] The specific fluorescence emission was calculated after subtracting the background activity, which was determined from wells containing all components except the hMAO isoforms, which were replaced with PBS.

[2] = target: T2, hMAO-B (Homo sapiens, UniProt P27338); experiment: biochemical; settings: for IC50: read-out: hMAO-B (IC50), recombinant hMAO-B, p-tyramine substrate; for inhibition at 50 µM: read-out: hMAO-B percentage of inhibition (in brackets)
T2 sequence (P27338 1-520): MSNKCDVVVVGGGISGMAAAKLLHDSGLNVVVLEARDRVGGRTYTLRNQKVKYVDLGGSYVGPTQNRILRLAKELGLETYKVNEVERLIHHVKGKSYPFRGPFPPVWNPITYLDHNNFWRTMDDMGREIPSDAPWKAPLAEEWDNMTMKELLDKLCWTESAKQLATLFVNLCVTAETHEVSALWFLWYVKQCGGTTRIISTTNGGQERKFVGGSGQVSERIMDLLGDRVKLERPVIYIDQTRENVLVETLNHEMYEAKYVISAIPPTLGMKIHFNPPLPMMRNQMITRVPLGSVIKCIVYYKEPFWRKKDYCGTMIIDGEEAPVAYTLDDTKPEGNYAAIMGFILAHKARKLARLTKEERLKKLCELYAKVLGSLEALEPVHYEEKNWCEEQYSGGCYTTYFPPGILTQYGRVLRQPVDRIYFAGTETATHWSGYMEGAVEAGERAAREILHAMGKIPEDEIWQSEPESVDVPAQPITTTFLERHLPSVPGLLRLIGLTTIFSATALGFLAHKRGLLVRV
Experimental: as §1, §2

[3] = Oxygen radical absorbance capacity (ORAC-FL) assay; settings: trolox = 1.0
Experimental: 2,2′-Azobis-(amidinopropane) dihydrochloride (AAPH), trolox, and fluorescein (FL) were purchased from Sigma-Aldrich. The reaction was carried out in a 75 mM phosphate buffer (pH 7.4), and the final reaction mixture was 200 μL. […] Antioxidant curves (fluorescence vs time) were first normalized to the curve of the blank corresponding to the same assay, and the area under the curve (AUC) of fluorescence decay was calculated. The net AUC corresponding to a sample was calculated by subtracting the AUC corresponding to the blank. Regression equations between the net AUC and antioxidant concentration were calculated for all the samples.

[4] = in vitro; format: in vitro ADME; settings: for Papp at 240 min, 100 μg mL^–1: PAMPA; for PAMPA-BBB (Pe, 10^–6 cm s^–1): porcine brain lipid
[5] = system: NRF2-ARE signaling pathway; experiment: cells; format: cell-based; settings: for NRF2 (CD, μM): concentration required to double luciferase activity, AREc32 cells, 24 h; for EC (2-fold induction): Arec32, 24 h, read-out: NRF2 (CD, μM), concentration required to double luciferase activity, AREc32 cells, 24 h
Experimental: AREc32 cells were plated in 96-well white plates (2 × 10^4 cells/well). […]. The AREc32 cells constitutively express the plasmid pGL-8xARE that implements eight copies of the EpRE sequences, followed by the luciferase reporter gene. Therefore, NRF2 induction is related to the activation of EpRE sequences, expressing luciferase at the same extent as EpRE sequences are activated. The Luciferase Assay System (Promega E1500) was used according to the provider’s protocol, and luminescence was quantified in an Orion II microplate luminometer (Berthold, Germany). Fold induction of luciferase activity was normalized to basal conditions. Data are expressed as CD values, expressing the concentration required to double the luciferase activity. CD values were calculated from dose–response curves generated from the fold induction of control conditions versus inducer concentration and fitted by nonlinear regression and data interpolated to twofold induction concentration.[68]

[6] = target: T3, QR2 (Mesocricetus auratus, UniProt A0ABM2YAB8); experiment: biochemical
T3 sequence (A0ABM2YAB8 1-231): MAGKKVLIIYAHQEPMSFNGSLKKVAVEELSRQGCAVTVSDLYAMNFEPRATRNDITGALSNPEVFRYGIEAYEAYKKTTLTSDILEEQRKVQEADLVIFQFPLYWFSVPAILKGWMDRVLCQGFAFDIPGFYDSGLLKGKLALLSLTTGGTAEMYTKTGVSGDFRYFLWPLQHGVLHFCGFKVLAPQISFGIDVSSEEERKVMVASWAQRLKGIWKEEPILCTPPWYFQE
Experimental: The QR2 experiments were performed in membrane homogenates of hamster brains (https://www.eurofins.fr, catalog ref. 0088). […] First, radioligand displacement was measured at a fixed compound concentration (10 μM) in each receptor.

[7] = pH 7.4, class from PAMPA-BBB Pe, read-out: CNS-permeability prediction
[8] = PBS/EtOH (70:30), 240 min, 25 °C

| Structure (SMILES) | IC50 [1] [µM] | IC50 [2] [µM] | ORAC (trolox equiv) [3] [trolox equiv] | Papp at 240 min, 100 μg mL^–1 [4, 7] [×10⁻⁶ cm/s] | PAMPA-BBB (Pe, 10^–6 cm s^–1) [4, 8] | NRF2 (CD, μM) [5] [µM] | inhibition at 50 µM [2] [%] | EC (2-fold induction) [5] [µM] | inhibition at 50 µM ([1]; read-out: hMAO-A percentage of inhibition (in brackets)) [%] | Papp at 240 min, 100 μg mL^–1 ([4]; pH 7.4, porcine brain lipid, PBS/EtOH (70:30), 240 min, 25 °C, read-out: PAMPA-BBB) [×10⁻⁶ cm/s] | IC50 [6] [nM] | Papp at 240 min, 100 μg mL^–1 ([4]; pH 7.4, PAMPA standards, mean ± SD of three experiments, read-out: Permeability Pe, Exp) [×10⁻⁶ cm/s] |
| --- | --- | --- | --- | --- | --- | --- | --- | --- | --- | --- | --- | --- |
| COc1ccc(/C=C/c2n[nH]c(=O)o2)c(OC)c1 [2f, 5-[(E)-2-(2,4-Dimethoxyphenyl)ethenyl]-1,3,4-oxadiazol-2(3H)-one] | > 50 | > 50 | 0.6 ± 0.08 | 2 to 4 | 3.6 ± 0.2 10^–6 cm s^–1 |  |  |  |  |  |  |  |
| C#CCNC(=O)/C=C/c1ccc(OC)cc1 [6e, (2E)-3-(4-Methoxyphenyl)-N-(prop-2-yn-1-yl)prop-2-enamide] | > 50 | > 50 | <0.1 |  |  |  |  |  |  |  |  |  |
| O=c1[nH]nc(/C=C/c2ccc3c(c2)OCO3)o1 [2i, 5-[(E)-2-(2H-1,3-Benzodioxol-5-yl)ethenyl]-1,3,4-oxadiazol-2(3H)-one] | > 50 | 27.6 ± 0.9 | <0.1 | 2 to 4 | 3.8 ± 0.2 10^–6 cm s^–1 |  |  |  |  |  |  |  |
| O=c1[nH]nc(/C=C/c2ccc(O)c(O)c2)o1 [3o, 5-[(E)-2-(3,4-Dihydroxyphenyl)ethenyl]-1,3,4-oxadiazol-2(3H)-one] | 3.4 ± 0.2 | 5.8 ± 0.4 | 1.7 ± 0.1 | < 2 | ≤ 0.2 10^–6 cm s^–1 | 21.3 ± 1.6 |  |  |  |  |  |  |
| N#Cc1cccc(/C=C/c2n[nH]c(=O)o2)c1 [2b, 3-[(E)-2-(5-Oxo-4,5-dihydro-1,3,4-oxadiazol-2-yl)ethenyl]benzonitrile] | > 50 | > 50 | <0.1 | > 4 | 4.5 ± 0.3 10^–6 cm s^–1 | 13.7 ± 2.2 | 38 | 13.7 |  |  |  |  |
| C#CCNC(=O)/C=C/c1ccc(O)cc1 [6m, (2E)-3-(4-Hydroxyphenyl)-N-(prop-2-yn-1-yl)prop-2-enamide] | > 50 | 31.1 ± 1.57 | 3.0 ± 0.2 |  |  |  |  |  |  |  |  |  |
| COc1ccc(OC)c(/C=C/c2n[nH]c(=O)o2)c1 [2g, 5-[(E)-2-(2,5-Dimethoxyphenyl)ethenyl]-1,3,4-oxadiazol-2(3H)-one] | > 50 | > 50 | <0.1 | 2 to 4 | 3.0 ± 0.2 10^–6 cm s^–1 |  |  |  |  |  |  |  |
| C#CCNC(=O)/C=C/c1ccc(O)c(OC)c1 [6n, (2E)-3-(4-Hydroxy-3-methoxyphenyl)-N-(prop-2-yn-1-yl)prop-2-enamide] | > 50 | > 50 | 0.5 ± 0.03 | < 2 | ≤ 0.5 10^–6 cm s^–1 | >60 | 33 | > 60 | 33 | < 2 |  |  |
| C#CCNC(=O)/C=C/c1cccc(C#N)c1 [6b, (2E)-3-(3-Cyanophenyl)-N-(prop-2-yn-1-yl)prop-2-enamide] | > 50 | > 50 | <0.1 |  |  |  |  | > 60 |  |  |  |  |
| COc1ccc2[nH]cc(CCNC(C)=O)c2c1 [melatonin, reference compound] |  |  |  |  |  |  |  |  |  |  | 77 ± 1 |  |
| COc1ccc(/C=C/c2n[nH]c(=O)o2)cc1OC [2h, 5-[(E)-2-(3,4-Dimethoxyphenyl)ethenyl]-1,3,4-oxadiazol-2(3H)-one] | > 50 | > 50 | <0.1 | 2 to 4 | 2.4 ± 0.3 10^–6 cm s^–1 |  |  | > 60 |  |  |  |  |
| COc1cc(/C=C/c2n[nH]c(=O)o2)cc(OC)c1OC [2k, 5-[(E)-2-(3,4,5-Trimethoxyphenyl)ethenyl]-1,3,4-oxadiazol-2(3H)-one] | > 50 | > 50 | <0.1 | < 2 | ≤ 0.5 10^–6 cm s^–1 |  |  |  |  |  |  |  |
| O=c1[nH]nc(/C=C/c2cc(O)cc(O)c2)o1 [3p, 5-[(E)-2-(3,5-Dihydroxyphenyl)ethenyl]-1,3,4-oxadiazol-2(3H)-one] | > 50 | > 50 | 1.9 ± 0.1 | < 2 | ≤ 0.1 10^–6 cm s^–1 |  |  | > 60 |  |  |  |  |
| C[C@]12CCC(=O)C=C1CC[C@@H]1[C@@H]2[C@@H](O)C[C@]2(C=O)[C@@H](C(=O)CO)CC[C@@H]12 [Aldosterone, reference compound] |  |  |  |  |  |  |  |  |  |  |  | 3.1 ± 0.2 |
| C[S+]([O-])CCCCN=C=S (stereo not shown) [sulforaphane, reference compound] |  |  |  |  |  | 1.24 ± 0.28 |  | 1.24 |  |  |  |  |
| C#CCNC(=O)/C=C/c1cccc(O)c1 [6l, (2E)-3-(3-Hydroxyphenyl)-N-(prop-2-yn-1-yl)prop-2-enamide] | > 50 | > 50 | 3.0 ± 0.3 |  |  |  |  |  |  |  |  |  |
